Here are results for one molecule from publication PMC4826227, “A pyrazolopyran derivative preferentially inhibits the activity of human cytosolic serine hydroxymethyltransferase and induces cell death in lung cancer cells” (Oncotarget, 2015).

Test [1] has as its target T1, SHMT2 (Homo sapiens, UniProt P34897).
T1 construct: made in house
T1 sequence (P34897 30-504): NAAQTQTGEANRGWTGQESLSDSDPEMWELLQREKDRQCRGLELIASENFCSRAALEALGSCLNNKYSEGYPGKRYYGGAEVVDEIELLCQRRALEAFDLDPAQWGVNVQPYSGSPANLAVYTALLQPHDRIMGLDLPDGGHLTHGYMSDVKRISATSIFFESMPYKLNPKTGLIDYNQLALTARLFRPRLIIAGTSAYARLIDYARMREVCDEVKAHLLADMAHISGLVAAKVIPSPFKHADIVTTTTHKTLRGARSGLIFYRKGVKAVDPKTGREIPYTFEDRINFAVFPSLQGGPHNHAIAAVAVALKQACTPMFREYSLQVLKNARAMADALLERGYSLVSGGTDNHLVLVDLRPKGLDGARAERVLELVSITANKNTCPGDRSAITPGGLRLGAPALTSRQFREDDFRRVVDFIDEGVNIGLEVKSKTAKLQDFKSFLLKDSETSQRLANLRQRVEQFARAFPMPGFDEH
Kind of test: Spectrophotometric quinonoid-intermediate competitive binding assay on purified recombinant SHMT2. Type of test: biochemical. The following applies: purified SHMT2 5.5 μM, glycine 3.0 mM, 20 μM H4PteGlu, read-out: estimated inhibition constants (IC50). How it is done:
(§1) Initially, compounds 2.2 and 2.12 (Figure 1) were tested on purified recombinant SHMT1 and SHMT2 isoforms using a spectrophotometric assay, in which the inhibitors and H4PteGlu compete for binding to the same site of the enzyme. Both isozymes (5.5 μM) were incubated with a saturating concentration of glycine (3.0 mM), in the presence of 20 μM H4PteGlu and a varying concentration of either compound 2.12 or 2.2. The activity of the enzyme was calculated from the spectrophotometric measurement of the quinonoid intermediate that develops when both glycine and H4PteGlu bind to SHMT [20]. […]
(§2) Figure 2 Activity inhibition on purified SHMTs by compound 2.12 The activity of cytosolic (black symbols) and mitochondrial (red symbols) SHMT isoforms was measured in the presence of increasing concentrations of compound 2.12. […]
(§3) Inhibition of SHMT activity by compound 2.12 was tested using competitive binding assays in which the antifolate competes for binding with H4PteGlu. […] Therefore, absorbance at 500 nm is proportional to the fraction of enzyme present as ternary complex. […] The effect of DMSO concentration on quinonoid development was analysed and found to be negligible up to 20% DMSO (v/v). […] After a rapid manual mixing, the absorbance change at 500 nm was measured. […]

Test [2] concerns the target T2, SHMT1 (Homo sapiens, UniProt P34896).
T2 construct: made in house
T2 sequence (P34896 1-483): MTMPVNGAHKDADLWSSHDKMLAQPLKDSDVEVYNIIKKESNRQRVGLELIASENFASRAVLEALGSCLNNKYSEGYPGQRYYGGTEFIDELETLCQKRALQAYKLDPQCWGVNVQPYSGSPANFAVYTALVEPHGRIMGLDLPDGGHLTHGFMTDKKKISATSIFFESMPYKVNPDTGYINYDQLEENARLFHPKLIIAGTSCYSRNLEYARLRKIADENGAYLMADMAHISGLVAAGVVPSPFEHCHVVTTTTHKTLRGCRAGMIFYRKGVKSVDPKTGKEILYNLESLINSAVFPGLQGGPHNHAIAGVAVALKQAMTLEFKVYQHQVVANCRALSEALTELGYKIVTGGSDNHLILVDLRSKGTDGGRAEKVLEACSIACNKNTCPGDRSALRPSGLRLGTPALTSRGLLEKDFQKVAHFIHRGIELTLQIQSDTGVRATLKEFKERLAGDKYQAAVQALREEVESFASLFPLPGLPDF
Kind of test: Spectrophotometric quinonoid-intermediate competitive binding assay on purified recombinant SHMT1. Conditions: purified SHMT1 5.5 μM, glycine 3.0 mM, 20 μM H4PteGlu, read-out: estimated inhibition constants (IC50). Type of test: biochemical. How it is done:
as §1, §2, §3

As for `CCC1(c2ccc(F)cc2)C(C#N)=C(N)Oc2[nH]nc(C)c21` (centres unmarked) [compound 2.2], the IC50 is 263 ± 48 µM in test [1] and 154 ± 14.4 µM in test [2].

Usually IC50 stands for the point on the concentration scale where inhibition reaches its midpoint.
